From publication PMC7694037, “Quinolizidine-Derived Lucanthone and Amitriptyline Analogues Endowed with Potent Antileishmanial Activity” (Pharmaceuticals, 2020)
≈ marks a conversion by molar mass, not a printed value. Where two headings read alike, the source gives them in different places.

Legend:
[1] = tested on: rat skeletal myoblast cells (L6); experiment: Cytotoxicity on rat skeletal myoblast cells (L6); format: cell-based
[2] = tested on: rat skeletal myoblast cells (L6); conditions: cited from earlier work
[3] = i.p., doses up to 200–350 mg/kg, once a day for five consecutive days, mice inoculated with leukemia P388 cells; cited from earlier work
[4] = tested on: Leishmania tropica promastigotes; experiment: Antileishmanial activity against L. tropica promastigotes (MTT assay); conditions: for IC50: 72 h, IC50 ± SD; for Ratio IC50 Miltef./IC50 Compd. (L. tropica): ratio between IC50 of miltefosine and that of each compound, L. tropica promastigotes
Procedure: (§5) Promastigote stage of L. infantum strain MHOM/TN/80/IPT1 (kindly provided by Dr. M. Gramiccia, ISS, Roma) and L. tropica (MHOM/SY/2012/ISS3130) were cultured in RPMI 1640 medium (EuroClone) supplemented with 10% heat-inactivated fetal calf serum (EuroClone, Milan Italy), 20 mM Hepes and 2 mM L-glutamine at 24 °C. […] Compounds were dissolved in DMSO and then diluted with medium to achieve the required concentrations. Drugs were placed in 96 wells round-bottom microplates and seven serial dilutions made. Miltefosine was used as reference anti-Leishmania drug. Parasites were diluted in complete medium to 5 × 10^6 parasites/mL and 100 μL of the suspension was seeded into the plates, incubated at 24 °C for 72 h and then 20 µL of MTT solution (5 mg/mL) was added into each well for 3 h. The plates were then centrifuged, the supernatants were discarded and the resulting pellets were dissolved in 100 µL of lysing buffer consisting of 20% (w/v) of a solution of SDS (Sigma), 40% DMF (Merck, Milan Italy) in H2O. The absorbance was measured spectrophotometrically at a test wavelength of 550 nm and a reference wavelength of 650 nm.

[5] = tested on: L. infantum promastigotes; experiment: Antileishmanial activity against L. infantum promastigotes (MTT assay); conditions: for IC50: Leishmania infantum, 72 h, read-out: IC50 L. infantum; for Ratio IC50 Miltef./IC50 Compd. (L. infantum): ratio between IC50 of miltefosine and that of each compound, L. infantum promastigotes
Procedure: as §5

[6] = Cytotoxicity against Vero-76 cells (crystal violet staining); format: cell-based, Cercopithecus Aethiops; conditions: Cercopithecus aethiops (African green monkey); Vero-76 monolayers; CC50 ± SD; read-out: CC50 Vero-76
Procedure: (§1) The cytotoxicity of lucanthone was also tested for comparison. […] The relevant selectivity index (SI)—a parameter that quantifies the preferential antileishmanial activity of a compound in relation to mammalian cell toxicity (CC50/IC50)—is tabulated in Table 2. […] The replacement of the 4-methyl substituent with an amino group in compound 14, while preserving good antileishmanial activity, led to a further substantial decrease of cytotoxicity, with a resultantly safer profile (SI = 16.2 and 16.9 for the two Leishmania species).
(§2) Vero-76 cells (ATCC CRL 1587 Cercopithecus Aethiops) were seeded at an initial density of 4 × 10^5 cells/mL in 24-well plates, in culture medium (Dulbecco’s modified eagle’s medium (D-MEM) with L-glutamine, supplemented with fetal bovine serum (FBS), 0.025 g/L kanamycin). Cell cultures were then incubated at 37 °C in a humidified, 5% CO2 atmosphere in the absence or presence of serial dilutions of test compounds. Cell viability was determined after 48–96 h at 37 °C by the Crystal violet staining method. The results are expressed as CC50, which is the concentration of compound necessary to inhibit cell growth by 50%. Each CC50 value is the mean and standard deviation of at least three separate experiments performed in duplicate.

Vero-76 cells = experiment: as above; format: cell-based, Cercopithecus Aethiops
Procedure: as §1, §2

[7] = tested on: intramacrophagic amastigotes of L. infantum; experiment: Intracellular amastigote susceptibility assay in PMA-differentiated THP-1 macrophages; format: cell-based; conditions: Leishmania infantum, THP-1, 72 h, read-out: L. infantum Amastigotes IC50
Procedure: Finally, for a better idea of their real value as antileishmanial agents, compounds 14 and 17, displaying the most promising activity against promastigote stage and the highest SI values, together with lucanthone and the corresponding quinolizidine analog 1, were tested against the intramacrophagic amastigote stage of L. infantum.
THP-1 cells (human acute monocytic leukemia) were maintained in RPMI supplemented with 10% FBS (EuroClone), 50 µM 2-mercaptoethanol, 20 mM Hepes and 2 mM glutamine, at 37 °C in 5% CO2. For Leishmania infections, THP-1 cells were plated at 5 × 10^5 cells/mL in 16-chamber Lab-Tek culture slides (Nunc, Milan, Italy) and treated with 0.1 µM phorbol myristate acetate (PMA, Sigma) for 48 h to achieve differentiation into macrophages. Cells were washed and infected with metacyclic L. infantum promastigotes at a macrophage/promastigote ratio of 1/10 for 24 h. Cell monolayers were then washed and incubated in the presence of test compounds for 72 h. Slides were fixed with methanol and stained with Giemsa. The percentages of infected macrophages among treated and non-treated cells were determined by light microscopy.

[8] = Cytotoxicity against PMA-differentiated THP-1 cells (MTT); format: cell-based, human; conditions: human; PMA-differentiated THP-1; mean ± SD; read-out: THP-1 CC50
Procedure: (§3) The cytotoxic concentration (CC50) against THP-1 differentiated into macrophages (Table 3), used for testing the activity against the amastigote stage, is also reported.
(§4) THP-1 cells were plated at 5 × 10^5 cells/mL in 96 wells flat bottom microplates and treated with 0.1 µM PMA for 48 h to achieve differentiation into macrophages. Cells were then treated with serial dilutions of test compounds and cell proliferation evaluated using the MTT assay described for promastigotes.

PMA-differentiated THP-1 = experiment: as above; format: cell-based, human; conditions: CC50 THP-1 / IC50 L. infantum amastigotes
Procedure: as §3, §4

[9] = tested on: intramacrophagic L. tropica amastigotes; parameters: method as in PMID 6312823; conditions: cited from earlier work
[10] = parameters: method as in PMID 4954156, PMID 4633870; conditions: bacteria not specified; cited from earlier work
AChE = tested on: AChE; parameters: method as in PMID 3707621, PMID 25924599, PMID 21459491; conditions: cited from earlier work
BChE = tested on: BChE; parameters: method as in PMID 3707621, PMID 25924599, PMID 21459491; conditions: cited from earlier work
L. donovani = tested on: L. donovani; parameters: method as in PMID 21358812; conditions: ex vivo splenic explant model system; read-out: IC50 against L. donovani; cited from earlier work
[11] = tested on: choline uptake into rat brain synaptosomes; parameters: method as in PMID 6124978; conditions: 1 µM concentration; cited from earlier work
[12] = Leishmania tropica, read-out: IC50 L. tropica, promastigotes, MTT, 72 h

In the case of COc1ccc2sc3c(C)ccc(NCCC4CCCN5CCCCC45)c3c(=O)c2c1 (stereo not drawn) [Compound 6], the “selectivity index (SI) L6 vs L. infantum” value ([1]; CC50 L6 / IC50 L. infantum) is given as ≤ 3, the “selectivity index (SI) L6 vs L. tropica” value ([1]; CC50 L6 / IC50 L. tropica) is given as 4.8 and the CC50 [2] is given as 137 µM. For the same compound, the mortality [3] was “no mortality”, the IC50 [4, 12] was 28.4 ± 14.3 µM and the “Ratio IC50 Miltef./IC50 Compd. (L. tropica)” value [4] was 1.5. The IC50 [5] was > 46 µM and the “Ratio IC50 Miltef./IC50 Compd. (L. infantum)” value [5] was <0.7.

For CCN(CC)CCNc1ccc(C)c2sc3ccccc3c(=O)c12 [Lucanthone], the CC50 [6] was 12.4 ± 2.1 µM, the “S.I. L. infantum” value (Vero-76 cells; CC50 Vero-76 / IC50 L. infantum promastigotes) was 3.5 and the “S.I. L. tropica” value (Vero-76 cells; CC50 Vero-76 / IC50 L. tropica promastigotes) was 4.8. For the same compound, the IC50 [7] was 3.43 ± 0.93 µM, the CC50 [8] was 15.2 ± 0.27 µM and the “SI (THP-1)” value (PMA-differentiated THP-1) was 4.4. For the same compound, the “IC50 against intramacrophagic L. tropica amastigotes” value [9] was 0.93 µg/mL (≈ 2.73 µM), the IC50 ([9]; converted value in brackets, read-out: IC50 against intramacrophagic L. tropica amastigotes) was 2.47 µM and the “MIC (antibacterial activity)” value [10] was 30 to 60 µM. For the same compound, the “IC50 AChE inhibition” value (AChE) was “low micromolar and sub-micromolar range”, the “IC50 BChE inhibition” value (BChE) was “low micromolar and sub-micromolar range” and the IC50 [4, 12] was 2.5 µM. The “Ratio IC50 Miltef./IC50 Compd. (L. tropica)” value [4] was 16.8, the IC50 ([4]; read-out: IC50 L. tropica, promastigotes, MTT) was 2.57 ± 1.03 µM and the IC50 [5] was 3.5 ± 1.17 µM. For the same compound, the “Ratio IC50 Miltef./IC50 Compd. (L. infantum)” value [5] was 8.9.

In the case of O=c1c2ccccc2sc2c(CO)ccc(CCN3CCCCC3)c12 [1-(piperidinoethyl)-4-hydroxymethylthioxanthen-9-one], the IC50 (L. donovani) is given as 9.1 µM.

In the case of C(=C1c2ccccc2CCc2ccccc21)[C@@H]1CCCN2CCCC[C@H]12 [Compound 18, lupinylidene dibenzocycloheptadiene], the “inhibition of choline uptake into rat brain synaptosomes” value [11] is given as “inhibit the choline uptake”, the IC50 [4, 12] is given as 24.2 ± 3.58 µM and the “Ratio IC50 Miltef./IC50 Compd. (L. tropica)” value [4] is given as 1.8. For the same compound, the IC50 [5] was 25.2 ± 1.92 µM and the “Ratio IC50 Miltef./IC50 Compd. (L. infantum)” value [5] was 1.24.
